The values below come from BindingDB's records for doi:10.1016/j.bmcl.2017.10.053 (Vanderbilt University School of Medicine, 2017).

pEC50: −log10 of the molar value.

In the test the target is T1, Muscarinic acetylcholine receptor M4 (Homo sapiens, UniProt P08173).
T1 sequence (P08173 whole entry): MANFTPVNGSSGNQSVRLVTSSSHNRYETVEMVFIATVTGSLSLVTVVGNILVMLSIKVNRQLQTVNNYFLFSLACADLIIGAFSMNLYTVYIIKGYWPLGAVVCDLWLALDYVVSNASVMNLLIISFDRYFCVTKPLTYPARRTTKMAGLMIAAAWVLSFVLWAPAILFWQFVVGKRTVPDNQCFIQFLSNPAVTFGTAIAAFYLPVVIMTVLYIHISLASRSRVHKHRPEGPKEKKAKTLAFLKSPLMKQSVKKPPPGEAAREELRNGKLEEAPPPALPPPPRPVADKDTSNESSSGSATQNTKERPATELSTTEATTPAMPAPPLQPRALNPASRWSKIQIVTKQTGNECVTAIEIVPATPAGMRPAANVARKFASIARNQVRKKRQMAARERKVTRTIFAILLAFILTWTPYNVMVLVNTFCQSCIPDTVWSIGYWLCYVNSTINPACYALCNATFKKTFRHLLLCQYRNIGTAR
Put plainly: Positive allosteric modulation of human M4 receptor expressed in CHO cells co-expressing Gqi5 assessed as increase in acetylcholine-induced calcium mobilization.

`Cc1nnc2sc(C(=O)N3CC4(CCN(c5cccnc5)C4)C3)c(N)c2c1C`: the pEC50 (usually −log10 of the EC50, conventionally taken in molar units) is 6.49.
